From patent US10723733B2, “Hepatitis B antiviral agents” (Enanta Pharmaceuticals, Inc., priority 2017, dated 2020)

What follows are molecules tested on HBV (assay: HepAD38 antiviral assay: reduction of viral product accumulation (virion DNA by qPCR, HBsAg/HBeAg by ELISA)). Details: Hepatitis B virus, 120 h; HepAD38 cells; 50% reduction of viral product accumulation vs no drug controls; five days after compound addition; class symbols.
Type: cell-based
Protocol: Methods: HepAD38 cells are maintained as previously reported (Ladner et al, Antimicrob. Agents Chemother. 1997, […], 1715). Briefly, cells are passaged upon attaining confluency in DMEM/F12 media in the presence of 10% FBS, Penn/Strep, 250 μg/mL G418, and 1 μg/ml tetracycline. Novel compounds are screened by first washing cells three times with PBS to remove tetracycline, and plating in 96 well plates at 35,000 cells/well. Compounds dissolved in DMSO are then diluted 1:200 into wells containing cells. Five days after compound addition, material is harvested for analysis. For an extended 8 day analysis, cells are plated and treated as described above, but media and compound are refreshed on d2 and d5 post initial treatment.
On harvest day, virion DNA is obtained by lysing with Sidestep Lysis and Stabilization Buffer and then quantified via quantitative real time PCR. Commercially available ELISA kits are used to quantitate the viral proteins HBsAg (Alpco) or HbeAg (US Biological) by following the manufacturer's recommended protocol after diluting samples to match the linear range of their respective assays. Irrespective of readout, compound concentrations that reduce viral product accumulation in the cell lysates or supernatants by 50% relative to no drug controls (EC50) are reported; EC50 ranges are as follows: A<0.1 μM; B 0.1-1 μM; C>1 μM.

Compared with `COC(=O)N[C@H]1CC2=C(c3cnn(C(F)F)c3)[C@H](c3ccc(F)cc3Cl)N=C(c3nccs3)N2C1` [Example 14], `CC(C)(C)OC(=O)N[C@H]1CC2=C(c3cnn(C(F)F)c3)[C@H](c3ccc(F)cc3Cl)N=C(c3nccs3)N2C1` [Example 2] is higher in EC50: < 100 nM for the first, 100 to 1000 nM for the second.

`OC[C@@]1(O)CC2=C(c3ccn(C(F)F)n3)[C@H](c3ccc(F)cc3Cl)N=C(c3nccs3)N2C1` [Example 122] and `[N-]=[N+]=NC[C@@]1(O)CC2=C(c3ccn(C(F)F)n3)[C@H](c3ccc(F)cc3Cl)N=C(c3nccs3)N2C1` [Example 113] fall in the same range of EC50: 100 to 1000 nM for the first, 100 to 1000 nM for the second.

`OCC(O)(CO)CC1=C(c2ccn(C(F)F)n2)[C@H](c2ccc(F)cc2Cl)N=C(c2nccs2)N1` [Example 111] and `O=C[C@@]1(CC2=C(c3ccn(C(F)F)n3)[C@H](c3ccc(F)cc3Cl)N=C(c3nccs3)N2)COC(=O)N1` [Example 91] cannot be ordered by EC50: < 100 nM for the first, < 100 nM for the second.

`C[C@H]1OC[C@@](F)(CC2=C(c3cnn(C(F)F)c3)[C@H](c3ccc(F)cc3Cl)N=C(c3nccs3)N2)CO1` [Example 140] and `CS(=O)(=O)OC[C@@]1(F)CC2=C(c3cnn(C(F)F)c3)[C@H](c3ccc(F)cc3Cl)N=C(c3nccs3)N2C1` [Example 35] fall in the same range of EC50: 100 to 1000 nM for the first, 100 to 1000 nM for the second.

`O=S(=O)(N[C@H]1CC2=C(c3cnn(CC(F)(F)F)c3)[C@H](c3ccc(F)cc3Cl)N=C(c3nccs3)N2C1)C1CC1` [Example 7] and `CCCS(=O)(=O)N[C@H]1CC2=C(c3cnn(C(F)F)c3)[C@H](c3ccc(F)cc3Cl)N=C(c3nccs3)N2C1` [Example 22] cannot be ordered by EC50: < 100 nM for the first, < 100 nM for the second.

`COC(=O)OC[C@@]1(N=[N+]=[N-])CC2=C(c3cnn(C(F)F)c3)[C@H](c3ccc(F)cc3Cl)N=C(c3nccs3)N2C1` [Example 55] and `CN(C)C(=O)N[C@H]1CC2=C(c3cnn(C(F)F)c3)[C@H](c3ccc(F)cc3Cl)N=C(c3nccs3)N2C1` [Example 18] cannot be ordered by EC50: < 100 nM for the first, < 100 nM for the second.

First: COC(=O)OC[C@]1(CC2=C(c3ccn(C(F)F)n3)[C@H](c3ccc(F)cc3Cl)N=C(c3nccs3)N2)COC(=O)N1 [Example 96]
Second: COC(=O)[C@]1(CC2=C(c3ccn(C(F)F)n3)[C@H](c3ccc(F)cc3Cl)N=C(c3nccs3)N2)COC(=O)N1 [Example 93]
The EC50 of the first is higher: 100 to 1000 nM for the first, < 100 nM for the second.

With `[N-]=[N+]=NC[C@]1(O)CC2=C(c3ccn(C(F)F)n3)[C@H](c3ccc(F)cc3Cl)N=C(c3nccs3)N2C1` [Example 114] the EC50 was 100 to 1000 nM.

Same assay, conditions: Hepatitis B virus, 120 h; HepAD38 cells; 50% reduction of viral product accumulation vs no drug controls; five days after compound addition; given as numeric bound

`O=S(=O)(CC1=C(c2cnn(C(F)F)c2)[C@H](c2ccc(F)cc2Cl)N=C(c2nccs2)N1)C1CCCC1` [Example 145] and `O=S(=O)(CC1=C(c2cnn(C(F)F)c2)[C@H](c2ccc(F)cc2Cl)N=C(c2nccs2)N1)N1CCC(O)CC1` [Example 146] cannot be ordered by EC50: > 400 nM for the first, > 400 nM for the second.

`CC(=O)[C@]1(CC2=C(c3ccn(C(F)F)n3)[C@H](c3ccc(F)cc3Cl)N=C(c3nccs3)N2)COC(=O)N1` [Example 108] and `O=C1N[C@@](CC2=C(c3ccn(C(F)F)n3)[C@H](c3ccc(F)cc3Cl)N=C(c3nccs3)N2)(C(=O)O)CO1` [Example 104] cannot be ordered by EC50: > 400 nM for the first, > 400 nM for the second.

`[N-]=[N+]=NC[C@@]1(N=[N+]=[N-])CC2=C(c3cnn(C(F)F)c3)[C@H](c3ccc(F)cc3Cl)N=C(c3nccs3)N2C1` [Example 53] and `C[C@]1(CN=[N+]=[N-])CC2=C(c3cnn(C(F)F)c3)[C@H](c3ccc(F)cc3Cl)N=C(c3nccs3)N2C1` [Example 36] cannot be ordered by EC50: > 400 nM for the first, > 400 nM for the second.

`CC(=O)OC[C@]1(N=[N+]=[N-])CC2=C(c3cnn(C(F)F)c3)[C@H](c3ccc(F)cc3Cl)N=C(c3nccs3)N2C1` [Example 58] and `CS(=O)(=O)OC[C@]1(F)CC2=C(c3cnn(C(F)F)c3)[C@H](c3ccc(F)cc3Cl)N=C(c3nccs3)N2C1` [Example 34] cannot be ordered by EC50: > 400 nM for the first, > 400 nM for the second.

`CS(=O)(=O)NC[C@@]1(O)CC2=C(c3ccn(C(F)F)n3)[C@H](c3ccc(F)cc3Cl)N=C(c3nccs3)N2C1` [Example 115] and `CC(=O)NC[C@@]1(O)CC2=C(c3ccn(C(F)F)n3)[C@H](c3ccc(F)cc3Cl)N=C(c3nccs3)N2C1` [Example 116] cannot be ordered by EC50: > 400 nM for the first, > 400 nM for the second.

`COC(=O)N[C@@]1(C(C)O)CC2=C(c3ccn(C(F)F)n3)[C@H](c3ccc(F)cc3Cl)N=C(c3nccs3)N2C1` (stereo partly drawn) [Example 87] and `COC[C@@]1(NC(=O)OC)CC2=C(c3ccn(C(F)F)n3)[C@H](c3ccc(F)cc3Cl)N=C(c3nccs3)N2C1` [Example 85] cannot be ordered by EC50: > 400 nM for the first, > 400 nM for the second.

`COC(=O)[C@](N)(CO)CC1=C(c2ccn(C(F)F)n2)[C@H](c2ccc(F)cc2Cl)N=C(c2nccs2)N1` [Example 62] and `COC(=O)NC[C@H]1CCC(=O)N1CC1=C(c2ccn(C(F)F)n2)[C@H](c2ccc(F)cc2Cl)N=C(c2nccs2)N1` [Example 132] cannot be ordered by EC50: > 400 nM for the first, > 400 nM for the second.

`CC(=O)NS(=O)(=O)N[C@H]1CC2=C(c3cnn(C(F)F)c3)[C@H](c3ccc(F)cc3Cl)N=C(c3nccs3)N2C1` [Example 20] and `O=C(N[C@H]1CC2=C(c3cnn(C(F)F)c3)[C@H](c3ccc(F)cc3Cl)N=C(c3nccs3)N2C1)NS(=O)(=O)C1CC1` [Example 16] cannot be ordered by EC50: > 400 nM for the first, > 100 nM for the second.

`Fc1ccc([C@@H]2N=C(c3nccs3)N3C[C@@H](OCc4ccccc4)CC3=C2c2cnn(C(F)F)c2)c(Cl)c1` [Example 25] and `O=C(N[C@H]1CC2=C(c3cnn(C(F)F)c3)[C@H](c3ccc(F)cc3Cl)N=C(c3nccs3)N2C1)NS(=O)(=O)c1ccccc1` [Example 17] cannot be ordered by EC50: > 200 nM for the first, > 100 nM for the second.

`COC(=O)[C@@]1(NS(=O)(=O)C2CC2)CC2=C(c3ccn(C(F)F)n3)[C@H](c3ccc(F)cc3Cl)N=C(c3nccs3)N2C1` [Example 68] and `COC(=O)[C@@]1(NS(C)(=O)=O)CC2=C(c3ccn(C(F)F)n3)[C@H](c3ccc(F)cc3Cl)N=C(c3nccs3)N2C1` [Example 67] cannot be ordered by EC50: > 400 nM for the first, > 400 nM for the second.

`CN(C)C(=O)NCC1CC2=C(c3cnn(C(F)F)c3)[C@H](c3ccc(F)cc3Cl)N=C(c3nccs3)N2C1` (stereo partly drawn) [Example 32] and `Fc1ccc([C@@H]2N=C(c3nccs3)N3C(=C2c2cnn(C(F)F)c2)CC2CCCC23)c(Cl)c1` (stereo partly drawn) [Example 47] cannot be ordered by EC50: > 100 nM for the first, > 400 nM for the second.

`COC(=O)N[C@]1(COC(=O)NCC(=O)O)CC2=C(c3ccn(C(F)F)n3)[C@H](c3ccc(F)cc3Cl)N=C(c3nccs3)N2C1` [Example 77] and `COC(=O)N[C@]1(COC(C)=O)CC2=C(c3ccn(C(F)F)n3)[C@H](c3ccc(F)cc3Cl)N=C(c3nccs3)N2C1` [Example 83] cannot be ordered by EC50: > 400 nM for the first, > 400 nM for the second.

`C=CC[C@]1(COS(C)(=O)=O)CC2=C(c3cnn(C(F)F)c3)[C@H](c3ccc(F)cc3Cl)N=C(c3nccs3)N2C1` [Example 39] and `COC(=O)[C@]1(O)CC2=C(c3ccn(C(F)F)n3)[C@H](c3ccc(F)cc3Cl)N=C(c3nccs3)N2C1` [Example 121] cannot be ordered by EC50: > 400 nM for the first, > 400 nM for the second.

`COC(=O)[C@]1(NC(=O)OC(C)(C)C)CC2=C(c3ccn(C(F)F)n3)[C@H](c3ccc(F)cc3Cl)N=C(c3nccs3)N2C1` [Example 65] and `COC(=O)[C@@]1(NC(=O)OC(C)(C)C)CC2=C(c3ccn(C(F)F)n3)[C@H](c3ccc(F)cc3Cl)N=C(c3nccs3)N2C1` [Example 64] cannot be ordered by EC50: > 400 nM for the first, > 400 nM for the second.

`CCOC(=O)NC[C@@H]1CCC(=O)N1CC1=C(c2ccn(C(F)F)n2)[C@H](c2ccc(F)cc2Cl)N=C(c2nccs2)N1` [Example 135] and `COC(=O)NC[C@@H]1CN(CC2=C(c3ccn(C(F)F)n3)[C@H](c3ccc(F)cc3Cl)N=C(c3nccs3)N2)C(=O)O1` [Example 128] cannot be ordered by EC50: > 400 nM for the first, > 400 nM for the second.

`CCC[C@H]1OC[C@@](F)(CC2=C(c3cnn(C(F)F)c3)[C@H](c3ccc(F)cc3Cl)N=C(c3nccs3)N2)CO1` [Example 142] and `Fc1ccc([C@@H]2N=C(c3nccs3)NC(C[C@]3(F)CO[C@H](c4ccccc4)OC3)=C2c2cnn(C(F)F)c2)c(Cl)c1` [Example 144] cannot be ordered by EC50: > 400 nM for the first, > 400 nM for the second.

`O=C(O)CC[C@]1(CC2=C(c3ccn(C(F)F)n3)[C@H](c3ccc(F)cc3Cl)N=C(c3nccs3)N2)COC(=O)N1` [Example 107] and `CNC(=O)OC[C@]1(CC2=C(c3ccn(C(F)F)n3)[C@H](c3ccc(F)cc3Cl)N=C(c3nccs3)N2)COC(=O)N1` [Example 98] cannot be ordered by EC50: > 400 nM for the first, > 400 nM for the second.

`COC(=O)N[C@]1(C(=O)NCCC(=O)OC(C)(C)C)CC2=C(c3ccn(C(F)F)n3)[C@H](c3ccc(F)cc3Cl)N=C(c3nccs3)N2C1` [Example 80] and `COC(=O)N[C@]1(C(=O)NCCC(=O)O)CC2=C(c3ccn(C(F)F)n3)[C@H](c3ccc(F)cc3Cl)N=C(c3nccs3)N2C1` [Example 81] cannot be ordered by EC50: > 400 nM for the first, > 400 nM for the second.

`CO/N=C/[C@]1(CC2=C(c3ccn(C(F)F)n3)[C@H](c3ccc(F)cc3Cl)N=C(c3nccs3)N2)COC(=O)N1` [Example 101] and `CC(C)(O)[C@]1(CC2=C(c3ccn(C(F)F)n3)[C@H](c3ccc(F)cc3Cl)N=C(c3nccs3)N2)COC(=O)N1` [Example 109] cannot be ordered by EC50: > 400 nM for the first, > 400 nM for the second.

`CC(O)[C@]1(CC2=C(c3ccn(C(F)F)n3)[C@H](c3ccc(F)cc3Cl)N=C(c3nccs3)N2)COC(=O)N1` (stereo partly drawn) [Example 110] and `CC(C)(C)OC(=O)NC[C@H]1CN(CC2=C(c3ccn(C(F)F)n3)[C@H](c3ccc(F)cc3Cl)N=C(c3nccs3)N2)C(=O)O1` [Example 124] cannot be ordered by EC50: > 400 nM for the first, > 400 nM for the second.

`COC(=O)[C@]1(N)CC2=C(c3ccn(C(F)F)n3)[C@H](c3ccc(F)cc3Cl)N=C(c3nccs3)N2C1` [Example 75] and `OCC(CO)CC1=C(c2cnn(C(F)F)c2)[C@H](c2ccc(F)cc2Cl)N=C(c2nccs2)N1` [Example 26] cannot be ordered by EC50: > 400 nM for the first, > 100 nM for the second.
